Counter-ions that a name gives are not always drawn.

One data set has as its system hepatitis B virus. Briefly: antiviral action on hepatitis B virus in HepG2.2.15 cells (HBV DNA dot-blot hybridization). The data set is classed as cell-based. The conditions noted are these: 96 h, 2 x 4 days incubation, intra- or extracellular hepatitis B-specific DNA band reduced by 50% vs untreated sample. How it is done: The antiviral action of the compounds according to the invention on hepatitis B virus was investigated by methods based on those described by M. A. Sells et al., Proc. Natl. Acad. Sci. 84, 1005-1009 (1987) and B. E. Korba et al., Antiviral Research 19, 55-70 (1992).
The antiviral tests were carried out in 96-well microtitre plates. The first vertical row of the plate received only growth medium and HepG2.2.15 cells. It served as virus control.
Stock solutions of the test compounds (50 mM) were initially dissolved in DMSO, and further dilutions were prepared in the HepG2.2.15 growth medium. The compounds according to the invention were usually pipetted in a test concentration of 100 μM (lst test concentration) in each case into the second vertical test row of the microtitre plate and subsequently diluted in twofold steps 2^10 times in growth medium +2% by weight fetal calf serum (volume 25 μl).
Each well of the microtitre plate then contained 225 μl of HepG2.2.15 cell suspension (5×10^4 cells/ml) in growth medium +2% by weight of fetal calf serum. The test mixture was incubated at 37° C. and 5% CO2 (v/v) for 4 days.
The supernatant was then aspirated off and discarded, and the wells received 225 μl of freshly prepared growth medium. The compounds according to the invention were each added anew as 10-fold concentrated solution in a volume of 25 μl. The mixtures were incubated for a further 4 days.
The supematants/cells were then harvested and sucked by means of a vacuum onto 96-well dot-blot chambers covered with a nylon membrane (in accordance with the manufacturer's information).
After the supernatants or lysed cells had been transferred to the nylon membrane of the blot apparatus (see above), the intra- or extracellular supernatants of the HepG2.2.15 cells were denatured (1.5 M NaCl/0.5 N NaOH), neutralized (3 M NaCl/0.5 M Tris HCl, pH 7.5) and washed (2× SSC). The DNA was then baked onto the membrane by incubating the filters at 120° C. for 2-4 hours.
Detection of the viral DNA from the treated HepG2.2.15 cells on the nylon filters was easily carried out with non-radioactive, digoxigenin-labelled hepatitis B-specific DNA probes, each of which was labelled with digoxigenin, purified and employed for the hybridization in accordance with the manufacturer's information.
The prehybridization and hybridization took place in 5× SSC, 1× blocking reagent, 0.1% by weight N-lauroylsarcosine, 0.02% by weight SDS and 100 μg of herring sperm DNA. The prehybridization took place at 60° C. for 30minutes, and the specific hybridization with 20 to 40 ng/ml of the digoxigenized, denatured HBV-specific DNA took place at 60° C. for 14 hours. The filters were then washed.
The immunological detection of the digoxigenin-labelled DNA took place in accordance with the manufacturer's information:
The filters were washed and prehybridized in a blocking reagent (in accordance with the manufacturer's information). Hybridization was then carried out with an anti-DIG antibody coupled to alkaline phosphatase for 30 minutes. After a washing step, the substrate of alkaline phosphatase, CSPD, was added, incubated with the filters for 5 minutes, then packed in plastic film and incubated at 37° C. for a further 15 minutes. The chemiluminescence of the hepatitis B-specific DNA signals was visualized by exposing the filters to an X-ray film (incubation depending on signal strength: 10 minutes to 2 hours).
The half-maximum inhibitory concentration (IC50, 50% inhibitory concentration) was determined as the concentration at which the intra- or extracellular hepatitis B-specific band was reduced by the compound according to the invention by 50% compared with an untreated sample.

For the compound `O=C(O)CCC1C(=O)c2ccc(-c3ccccc3)cc2OC12CCCCC2` (stereo not drawn), the melting point was found to be 196 °C.

Turning to `N#CCCC1C(=O)c2cc(F)c(F)cc2OC12CCCCC2` (stereo not drawn), the melting point was 80 °C.

Take `N#CCCC1(CCC#N)C(=O)c2ccc(Br)cc2OC12CCCCC2`: the melting point was in the range of 145 to 149 °C.

For `N#CCCC1(CCC#N)C(=O)c2ccc(-c3cccnc3)cc2OC12CCCCC2`, the melting point was 190 to 195 °C.

Compound `N#CCCC1C(=O)c2ccc(-c3ccc(F)cc3)cc2OC12CCCCC2` (stereo not drawn) had a melting point of 61 to 63 °C.

`Cc1cccc(-c2ccc3c(c2)OC2(CCCCC2)C(CCC#N)C3=O)c1` (stereo not drawn) [Example 76] gave a melting point of 86 to 90 °C. Moreover, the IC50 in the data set with hepatitis B virus is 2 to 120 nM.

On to `N#CCCC1C(=O)c2ccc(-c3ccc(F)c(F)c3)cc2OC12CCCC2` (stereo not drawn) [Example 82], for which, in the data set with hepatitis B virus, the IC50 is 2 to 120 nM.

With `N#CCCC1C(=O)c2ccc(-c3cccc(C#N)c3)cc2OC12CCCC2` (stereo not drawn) [Example 97], the half-inhibitory concentration (IC50) in the data set with hepatitis B virus lay within 2 to 120 nM.

In the data set on hepatitis B virus, `N#CCCC1C(=O)c2ccc(-c3ccc(F)c(F)c3)cc2OC12CCC2` (stereo not drawn) [Example 99] returned an IC50 of 2 to 120 nM.

In turn, `N#CCCC1C(=O)c2ccc(-c3cccc([N+](=O)[O-])c3)cc2OC12CCCC2` (stereo not drawn) [Example 116] showed an IC50 in the data set with hepatitis B virus of 2 to 120 nM.

Turning to `N#CCCC1C(=O)c2ccc(-c3cccc(N)c3)cc2OC12CCCCC2` (stereo not drawn) [Example 132, 3-(2-Cyanoethyl)-7-(3-aminophenyl)spiro[2H-1-benzopyran-2,1′-cyclohexan]-4(3H)-one Hydrochloride], in the data set on hepatitis B virus, the half-inhibitory concentration (IC50) was in the range of 2 to 120 nM.

One may read the melting point as the temperature, or range, at which the solid turns liquid. By IC50 is commonly meant the concentration that inhibits the measured activity by half.

Values taken from patent US20020082264A1, “Medicaments for viral diseases” (priority 2000, published 2002).
